In this assay the test system is Ang II-induced cardiac inflammation and fibrosis. The experiment in a line: Immunohistochemistry of inflammatory and fibrotic markers (F4/80, TNC) in left ventricle, Ang II preventive model. The format is in vivo, mouse. The following applies: 20 mg/kg oral, compared with Ang II untreated mice. The procedure: Macrophages accumulation are the hallmark of Ang II-induced fibrosis and play important roles during the inflammatory phase. Macrophage accumulation was identified by staining with a mAb that identifies F4/80^+ cells (FIG. 3). TNC is an ECM molecule that is expressed in response to injury in various tissues. Although not detectable in the normal adult heart, it was expressed under pathological conditions (FIG. 4).
Heart sections (Left ventricle) ([…]) were deparaffinized and boiled for 10 minutes in sodium citrate buffer (10 mM, pH 6.0) (Sigma-Aldrich, Madrid, Spain) for antigen retrieval. The sections were then incubated in a PBS washing buffer containing 0.1% Tween (Sigma-Aldrich, Madrid, Spain) three times for 10 minutes. The sections were incubated overnight at 4° C. with the following antibodies; for immunohistochemical detection of macrophages F4/80 antibody (1:50; MCA497, Bio-Rad) or with monoclonal anti-TNC (1:100 dilution, #MAB2138, RD system, Mineapolis, Minn., USA) were used for detection of this ECM protein. Slides were developed with diaminobenzidine chromogen (Agilent, Santa Clara, Calif., USA) and counterstained in Harris hematoxylin (Sigma-Aldrich, Madrid, Spain). Slides were photographed, digitalized using a Leica DFC420c camera and analyzed using Image J software.

As for `C=C(C)C1CCC(C)=C[C@H]1C1=C(O)C(=O)C(CCCCC)=C(NCc2ccccc2)C1=O` (some centres unmarked) [Formula (VIII)], the “TNC marker in left ventricle (immunostaining)” value is listed as “significantly reduced” and the “infiltration of F4/80+ macrophages in myocardial tissue” value is reported as “significantly reduced”.

The record behind these values is patent publication US20230137092A1, “Composition and Method for the Treatment and Prevention of Cardiac, Pulmonary, Dermal, and Renal Fibrosis” (EMERALD HEALTH PHARMACEUTICALS INC., priority 2020, published 2023).
